In US4656178A (priority 1985, dated 1987):
Where a name gives a salt, the structure may show the parent alone.

How the values were obtained:
[1] = tested on: cardiac arrhythmia induced by barium chloride; assay: cardiac arrhythmia induced by barium chloride; assay type: in vivo, narcotized rats and intact rabbits; settings: 0.1 mg/kg, injected 10 minutes prior to barium
Experimental: The study of the antiarrhythmic activity of the preparation according to the present invention on a model of cardiac arrhythmia induced by barium chloride was carried out on 56 narcotized rats and 16 intact rabbits. The preparation of the present invention in the dose of 0.1 mg/kg injected 10 minutes prior to administration of barium prevented the development of arrhythmia in 86.6% of the animals.

[2] = tested on: potassium channels of the membrane of neurons; assay: ion currents through the somatic membrane of mollusc neurons: potassium channels; assay type: cell-based, mollusca
Source text: The study of the effect produced by the preparation of the present invention on ion currents through the somatic membrane of neurons has shown that it selectively interacts with calcium and potassium channels of the membrane of neurons of mollusca, whereby the currents along these channels are suppressed.

[3] = teratogenicity in pregnant rats; assay type: in vivo; settings: 317 pregnant rats, 2,377 feti

CCN1CC2(OC(=O)c3ccccc3NC(C)=O)CCC(OC)C34C1C(CC23)C1(O)CC(OC)C2CC4C1(O)C2OC (stereo not drawn) [lappaconitine hydrobromide]
animals in which development of arrhythmia is prevented [1]: 86.6% | effect on currents along potassium channels [2]: suppressed | teratogenicity [3]: not a potentially teratogenic substance
